Laboratory results published in patent US6903085B1, “Substituted piperidine compounds useful as modulators of chemokine receptor activity” (AstraZeneca, AB, priority 1999, dated 2005).
Counter-ions that a name gives are not always drawn.

Row | melting point [°C] | Compound
1 | 189 to 190 | O=C(Nc1ccc(Cl)c(Cl)c1)NC1CCN(Cc2ccc(Cl)c(Cl)c2)CC1 [Example 105, N-[1-(3,4-Dichlorobenzyl)-4-piperidinyl]-N′-(3,4-dichlorophenyl)urea]
2 | 144 to 147 | O=C(Cc1ccc(F)cc1)NC1CCN(Cc2ccc(Cl)c(Cl)c2)CC1 [Example 99, N-[1-(3,4-Dichlorobenzyl)-4-piperidinyl]-2-(4-fluorophenyl)acetamide]
3 | > 250 | COc1ccc(CNC2CCN(Cc3ccc(Cl)c(Cl)c3)CC2)cc1 (as salt: hydrochloride) [Example 107, N-[1-(3,4-Dichlorobenzyl)-4-piperidinyl]-N-(4-methoxybenzyl)amine, dihydrochloride Salt]
4 | 186 to 189 | O=C(Cc1csc(-c2cnccn2)n1)NC1CCN(Cc2ccc(Cl)c(Cl)c2)CC1 [Example 100, N-[1-(3,4-Dichlorobenzyl)-4-piperidinyl]-2-[2-(2-pyrazinyl)-1,3-thiazol-4-yl]acetamide]
5 | 97 to 99 | O=C(CSc1ccccc1)NC1CCN(Cc2ccc(Cl)c(Cl)c2)CC1 [Example 98]
6 | 130 | O=C(CCCC(=O)c1ccccc1)NC1CCN(Cc2ccc(Cl)c(Cl)c2)CC1 [Example 96, N-[1-(3,4-Dichlorobenzyl)-4-piperidinyl]-5-oxo-5-phenylpentanamide]
7 | 132 | O=C(CCc1nc(-c2ccccn2)no1)NC1CCN(Cc2ccc(Cl)c(F)c2)CC1 [Example 363, N-[1-(4-Chloro-3-fluorobenzyl)-4-piperidinyl]-3-[3-(2-pyridinyl)-1,2,4-oxadiazol-5-yl]propanamide]
8 | 157 | O=C(CSc1ncc(-c2ccccc2)cn1)NC1CCN(Cc2ccc(Cl)c(Cl)c2)CC1 [Example 101, N-[1-(3,4-Dichlorobenzyl)-4-piperidinyl]-2-[(5-phenyl-2-pyrimidinyl)sulfanyl]acetamide]
9 | 155 | O=C(CCc1nc(-c2ccccn2)no1)NC1CCN(Cc2ccc(Cl)c(Cl)c2)CC1 [Example 102, N-[1-(3,4-Dichlorobenzyl)-4-piperidinyl]-3-[3-(2-pyridinyl)-1,2,4-oxadiazol-5-yl]propanamide]
10 | 150 | O=C(CCc1nc(-c2ccccn2)no1)NC1CCN(Cc2ccc(F)c(Cl)c2)CC1 [Example 362, N-[1-(3-Chloro-4-fluorobenzyl)-4-piperidinyl]-3-[3-(2-pyridinyl)-1,2,4-oxadiazol-5-yl]propanamide]
11 | 98 | O=C(CSc1ccc(C(F)(F)F)cn1)NC1CCN(Cc2ccc(Cl)c(Cl)c2)CC1 [Example 94, N-[1-(3,4-Dichlorobenzyl)-4-piperidinyl]-2-{[5-(trifluoromethyl)-2-pyridinyl]sulfanyl}acetamide]
12 | 145 | O=C(Cc1nc(-c2ccccn2)no1)NC1CCN(Cc2ccc(Cl)c(Cl)c2)CC1 [Example 359, N-[1-(3,4-Dichlorobenzyl)-4-piperidinyl]-2-[3-(2-pyridinyl)-1,2,4-oxadiazol-5-yl]acetamide]
13 | 165 | Cc1c(CC(=O)NC2CCN(Cc3ccc(Cl)c(Cl)c3)CC2)cnn1-c1ccccc1 [Example 95, N-[1-(3,4-Dichlorobenzyl)-4-piperidinyl]-2-(5-methyl-1-phenyl-1H-pyrazol-4-yl)acetamide]
14 | 125 | Clc1ccc(CN2CCC(Nc3nc4ccccc4[nH]3)CC2)cc1Cl [Example 103, N-[1-(3,4-Dichlorobenzyl)-4-piperidinyl]-1H-benzimidazol-2-amine]
15 | 170 | Cc1sc(-c2ccc(Cl)cc2)nc1CC(=O)NC1CCN(Cc2ccc(Cl)c(Cl)c2)CC1 [Example 97, 2-[2-(4-Chlorophenyl)-5-methyl-1,3-thiazol-4-yl]-N-[1-(3,4-dichlorobenzyl)-4-piperidinyl]acetamide]
16 | 178 to 179 | COc1cccc(NC(=O)NC2CCN(Cc3ccc(Cl)c(Cl)c3)CC2)c1 [Example 106, N-[1-(3,4-Dichlorobenzyyl)-4-piperidinyl]-N′-(3-methoxyphenyl)urea]
17 | 274 to 276 | COc1cccc(NC(=O)CNC2CCN(Cc3ccc(Cl)c(Cl)c3)CC2)c1 (as salt: hydrochloride) [Example 104, 2-{[1-(3,4-Dichlorobenzyl)-4-piperidinyl]amino}-N-(3-methoxyphenyl)acetamide, dihydrochloride Salt]
